The record followed here is patent US20060121488A1, “Glutamate transport modulatory compounds and methods” (priority 2003, published 2006).

Assay [1] concerns cultures prepared from GLT-1 null mice. The assay can be described thus: Chronic motor neurodegeneration model in cultures prepared from GLT-1 null mice. Format: cell-based. The conditions noted are these: not shown.
For another assay, the system named is EAAT2. The assay can be described thus: Spinal cord organotypic culture screen for EAAT2 protein expression (slot blot). Format: cell-based, rat.
Assay [2] concerns large ventral horn motor neurons in organotypic spinal cord cultures. Kind of assay: In vitro model of chronic motor neurodegeneration (THA, organotypic spinal cord cultures). The conditions noted are these: THA 100 μM, ceftriaxone 0 to 100 μM, 4 weeks. Format: cell-based, rat.
Method: In vitro model of chronic motor neurodegeneration (FIG. 7B). A model of chronic neurodegeneration was used, based on the blockade of glutamate transport in spinal cord organotypic cultures, with the non specific inhibitor threo-hytdroyxaspartate (THA) or TBOA. Chronic incubation of cultures with THA (or TBOA) leads to chronic increase in extra cellular glutamate and subsequent slow death of motor neurons (over 4 weeks).
To determine if drug induced GLT1 promoter activation, and the subsequent over expression of GLT1 protein could be neuroprotective, we used the organotypic spinal cord paradigm. Organotypic spinal cord cultures were prepared from lumbar spinal cords of 8-day-old rat pups, as described previously. […] No drugs were added for the first 7 days following culture preparation. THA was then added to experimental cultures at a concentration of 100 μM, which produces death of motor neurons within 3 to 4 weeks. […] After 4 weeks, cultures were fixed, and immuostained for neurofilament (SMI-32, Sternberger) to quantify large ventral horn motor neurons (a well established method to follow motor neuron survival in this system).
Assay [3] has as its system primary cortical mixed neuronal-glial cell cultures. The settings on record: 1 μM added 48 hours prior to 1 hour OGD; 50% without drug.
Method: Method. Primary cortical mixed neuronal-glial cell cultures are prepared from gestation day 14-16 CD1 mice. The preparation of these cultures from mouse fetal cortex is well-described. Experiments are performed at days in vitro 13-15. In the experimental condition, cultures are subjected to oxygen glucose deprivation (OGD), an in-vitro model of ischemia. Cortical cells are either subjected to control treatment (media, modified Earle's balanced salt solution including glucose and bubbled with 5% CO2 95% O2, is changed alongside treatment groups, but no OGD is performed), or 5 minutes (sublethal) of OGD (using modified Earle's balanced salt solution which is devoid of glucose and bubbled with 10% H2, 85% N2, and 5% to deoxygenate). Anaerobic conditions are achieved using an anaerobic chamber at 37° C. OGD is terminated by exchange of media back to oxygenated growing medium. Twenty-four hours following the above, cortical cells are subjected either to no treatment, or one hour of OGD. Neuronal survival is determined by computer-assisted cell counting after staining with the fluorescent vital dyes propidium iodide (as an indicator of neuronal death) and Hoechst 33342 (as an indicator of total number of neurons) and is presented as percent of cell death. Glial nuclei fluoresce at a lower intensity and are gated out. […] Following 1 hour OGD, cells are returned to growing medium without drugs.
For the next assay, the system named is G93A SOD1 mice. The assay can be described thus: In vivo neuroprotection in the G93A SOD1 mouse. An excerpt: Numerous studies have documented a contributory role for excess glutamate in this mouse model- and role for modulating glutamate receptors or transporters in neuroprotective strategies. Guo H., et al. Hum Mol Genet. 2003; 12:2519-2532. Modest over expression—by a transgenic approach—can alter disease onset and/or survival.

The mark [4] stands for this setting: 200 mg/kg ip from approximately 12 weeks of age.

Method for EAAT2: Screening Assay for EAAT2 Protein overexpression. […] Organotypic Spinal Cord. […] Briefly, 300 um sections of rat lumbar spinal cord, from postnatal day 8-10 rat pups, are placed on Millipore Millicell CM semipermeable membranes. Each well contains 5 slices (FIG. 2A). […] Each drug (10-100 μM) was added for 3 days, along with cell culture medium/serum. Cultures were harvested and 5-50 μg of tissue was applied to slot blot apparatus for detection of EAAT2 by standard Western blotting/chemiluminescence methods described in the past. […] All antipeptide antibodies were affinity purified and highly specific for transporter subtypes. […] For each antibody slot blot, the homogenates used are expected to be within the linear range for antibody detection, based on prior standard curves. Screening Library-Assay Design. […] The library is composed of 1040 compounds in 96 well plates, that also included positive control for transporter synthesis (dibutyryl cyclic AMP [dbcAMP], GDNF). […] Each compound was studied at a final concentration of 10-100 μM. All assays were performed in duplicate. Data Analysis. All blots were analyzed by laser densitometry (BioRad Image Quant) and the duplicate points were averaged. Each blot included a positive control standard (e.g. dbcAMP) and a negative control standard (e.g. serum, DMSO). […]

Consider `CO/N=C(\C(=O)N[C@@H]1C(=O)N2C(C(=O)O)=C(CSc3nc(=O)c(=O)[nH]n3C)CS[C@H]12)c1csc(N)n1` [ceftriaxone], for which the “neuroprotection in GLT-1 null cultures” value in assay [1] was “neuroprotection cannot be seen”. Besides, the “increase of GLT1 protein and function” value in the assay with EAAT2 (at the concentration used for neuroprotection (Preliminary Data Phases 1 and 2)) is “at least 3 fold”. Further, it took 3.5 µM to reach a half-maximal effect in the assay with EAAT2 (follow-up dose response analysis, spinal cord organotypic cultures) (EC50). The motor neuron loss result in assay [2] is on record as “prevented motor neurons loss in a dose dependent manner”. The “percentage of neuronal cell death after 1 hour OGD” value in assay [3] is recorded as 20%. Besides, in the assay with G93A SOD1 mice (setting [4]), the “duration of strength effect” value is on record as 4 weeks and the “time after treatment at which strength effect was observed” value is no more than 7 days. For the same compound, the “increase in over all survival” value in the assay with G93A SOD1 mice (200 mg/kg ip from approximately 12 weeks of age (disease onset)) was 7 to 10 days. Moreover, the “loss of muscle strength (grip strength)” value in the assay on G93A SOD1 mice (200 mg/kg ip from approximately 12 weeks of age, preservation lost by 18 weeks of age) was “significantly delayed loss of muscle strength”.
